Assay results published in BindingDB's records for doi:10.1124/mol.58.6.1511 (Albert Einstein College of Medicine, 2000).

What was measured:
[1] = target: Solute carrier organic anion transporter family member 2A1 (Homo sapiens, UniProt Q92959)
[2] = target: Prostaglandin F2-alpha receptor (Human, UniProt P43088)
Sequence of Prostaglandin F2-alpha receptor (P43088 whole entry): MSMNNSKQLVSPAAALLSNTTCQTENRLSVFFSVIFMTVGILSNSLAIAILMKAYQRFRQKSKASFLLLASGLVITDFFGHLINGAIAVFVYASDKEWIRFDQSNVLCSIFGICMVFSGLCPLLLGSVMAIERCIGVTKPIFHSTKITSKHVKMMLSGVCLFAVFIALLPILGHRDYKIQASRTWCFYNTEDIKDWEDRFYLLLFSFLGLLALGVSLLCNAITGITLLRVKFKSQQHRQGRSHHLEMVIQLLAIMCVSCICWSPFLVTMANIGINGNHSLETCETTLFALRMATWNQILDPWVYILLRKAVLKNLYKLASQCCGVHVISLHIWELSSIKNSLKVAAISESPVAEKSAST

Ki [1]	Ki [2]	SMILES
> 10 µM	> 10 µM	CCCCC[C@H](/C=C/[C@@H]1[C@@H](C/C=C/CCCC(N)=O)[C@@H](O)C[C@H]1O)OC [AGN 192151]
0.034 µM	> 10 µM	CCCCC[C@@H](O)/C=C/[C@@H]1[C@@H](C/C=C/CCCS(=O)(=O)NC(C)=O)[C@@H](O)C[C@H]1O [AGN 194394]
0.168 µM	0.018 µM	CC(C)OC(=O)CCC/C=C\C[C@@H]1[C@@H](/C=C/[C@@H](O)CCc2ccccc2)[C@H](O)C[C@@H]1O [CAS_130209-76-6]
5 µM	3.2 µM	CCCCCC(O)C=CC1C(O)CC(O)C1CC=CCCCC(=O)OC(C)C (stereo not drawn) [PGF2 Alpha, 1-isopropyl ester]

Second part, the compound before the results:

SMILES	Ki [1]	Ki [2]
CCCCC[C@H](O)/C=C/C1[C@H](O)C[C@H](O)[C@@H]1C/C=C\CCCC(=O)O (stereo partly drawn) [(Z)-7-[(1R,3R,5S)-3,5-Dihydroxy-2-((E)-(S)-3-hydroxy-oct-1-enyl)-cyclopentyl]-hept-5-enoic acid]	0.045 µM	
CCCCC[C@@H](O)/C=C/[C@@H]1[C@@H](C/C=C/CCCC(N)=O)[C@@H](O)C[C@H]1O [AGN 190911]	7.3 µM	> 10 µM
CCCCC[C@@H](O)/C=C/[C@@H]1[C@@H](C/C=C/CCCCN)[C@@H](O)C[C@H]1O [AGN 191088]	> 10 µM	> 10 µM
CCCCC[C@@H](O)/C=C/[C@@H]1[C@@H](C/C=C/CCCC(=O)NS(C)(=O)=O)[C@@H](O)C[C@H]1O [AGN 191365]	0.307 µM	> 10 µM
CCCCC[C@@H](O)/C=C/[C@@H]1[C@@H](C/C=C/CCCc2nnn[nH]2)[C@@H](O)C[C@H]1O [AGN 191366]	0.071 µM	8.13 µM
CCCCC[C@H](/C=C/[C@@H]1[C@@H](C/C=C/CCCC(=O)O)[C@@H](O)C[C@H]1O)OC [AGN 191995]	> 10 µM	0.228 µM
